# Results taken from patent US20220062278A1, “SMALL MOLECULE INHIBITORS OF THE ANDROGEN RECEPTOR ACTIVITY AND/OR EXPRESSION AND USES THEREOF” (Arizona Board of Regents on Behalf of the Univeristy of …, priority 2018, published 2022).
# Biological target: T1, AR (Homo sapiens, UniProt P10275)
# T1 sequence (P10275 669-920 limits assumed): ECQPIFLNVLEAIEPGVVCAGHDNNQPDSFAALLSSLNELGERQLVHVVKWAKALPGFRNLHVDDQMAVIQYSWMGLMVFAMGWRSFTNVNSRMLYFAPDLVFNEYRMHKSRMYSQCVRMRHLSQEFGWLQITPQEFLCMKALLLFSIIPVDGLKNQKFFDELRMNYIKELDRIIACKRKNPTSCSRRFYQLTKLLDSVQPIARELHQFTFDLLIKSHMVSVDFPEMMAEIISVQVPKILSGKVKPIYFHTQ
# Assay: GeneBlazer assay, inhibition against AR activity
# Type: cell-based
# Settings: 10 uM; Table II
# Description: Tables II, III and IV show % inhibition against AR activity at 10 μm within a GeneBlazer assay, and IC50 values (nM) in GeneBlazer assay.
row,Structure (SMILES),inhibition at 10 µM
1,"CCCCn1nnnc1C(c1cccc(O)c1)N1CCN(c2c(Cl)cncc2Cl)CC1 (stereo not shown) [Compound 1, 3-((1-butyl-1H-tetrazol-5-yl)(4-(3,5-dichloropyridin-4-yl)piperazin-1-yl)methyl)phenol]",81.5%
2,"CC(C)(C)n1nnnc1C(c1cc2ccccc2o1)N1CCN(c2c(Cl)cncc2Cl)CC1 (stereo not shown) [Compound 2, 1-(benzofuran-2-yl(1-(tert-butyl)-1H-tetrazol-5-yl)methyl)-4-(3,5-dichloropyridin-4-yl)piperazine]",108%
3,"CCCCn1nnnc1C(c1ccnc2ccccc12)N1CCN(c2c(Cl)cncc2Cl)CC1 (stereo not shown) [Compound 3, 4-((1-butyl-1H-tetrazol-5-yl)(4-(3,5-dichloropyridin-4-yl)piperazin-1-yl)methyl)quinoline]",110%
4,"CCCCn1nnnc1C(c1ccccc1)N1CCN(c2c(Cl)cncc2Cl)CC1 (stereo not shown) [Compound 4, 1-((1-butyl-1H-tetrazol-5-yl)(phenyl)methyl)-4-(3,5-dichloropyridin-4-yl)piperazine]",101%
5,"CCCCn1nnnc1CN1CCN(c2c(Cl)cncc2Cl)CC1 [Compound 5, 1-((1-butyl-1H-tetrazol-5-yl)methyl)-4-(3,5-dichloropyridin-4-yl)piperazine]",95.2%
6,"CCCCn1nnnc1C(C)N1CCN(c2c(Cl)cncc2Cl)CC1 (stereo not shown) [Compound 6, 1-(1-(1-butyl-1H-tetrazol-5-yl)ethyl)-4-(3,5-dichloropyridin-4-yl)piperazine]",95.3%
7,"CCCCn1nnnc1C(c1cccc(OC)c1)N1CCN(c2c(Cl)cncc2Cl)CC1 (stereo not shown) [Compound 7, 1-((1-butyl-1H-tetrazol-5-yl)(3-methoxyphenyl)methyl)-4-(3,5-dichloropyridin-4-yl)piperazine]",108%
8,CCCCn1nnnc1C(c1cccc(F)c1)N1CCN(c2c(Cl)cncc2Cl)CC1 (stereo not shown) [Compound 8],95.3%
9,CC(C)(C)n1nnnc1C(c1cccs1)N1CCN(c2c(Cl)cncc2Cl)CC1 (stereo not shown) [Compound 9],104%
10,"CCCCn1nnnc1C(c1cccs1)N1CCN(c2c(Cl)cncc2Cl)CC1 (stereo not shown) [Compound 10, 1-((1-butyl-1H-tetrazol-5-yl)(thiophen-2-yl)methyl)-4-(3,5-dichloropyridin-4-yl)piperazine]",98.2%
11,"CCCCn1nnnc1C(c1ccc2c(c1)OCO2)N1CCN(c2c(Cl)cncc2Cl)CC1 (stereo not shown) [Compound 11, 1-(benzo[d][1,3]dioxol-5-yl(1-butyl-1H-tetrazol-5-yl)methyl)-4-(3,5-dichloropyridin-4-yl)piperazine]",98.4%
12,"CCCCn1nnnc1C(c1ccc2[nH]ccc2c1)N1CCN(c2c(Cl)cncc2Cl)CC1 (stereo not shown) [Compound 12, 5-((1-butyl-1H-tetrazol-5-yl)(4-(3,5-dichloropyridin-4-yl)piperazin-1-yl)methyl)-1H-indole]",93.9%
13,"CC(C)n1nnnc1C(c1cccc(O)c1)N1CCN(c2c(Cl)cncc2Cl)CC1 (stereo not shown) [Compound 15, 3-((4-(3,5-dichloropyridin-4-yl)piperazin-1-yl)(1-isopropyl-1H-tetrazol-5-yl)methyl)phenol]",86%
14,"CC(C)(C)n1nnnc1C(c1cccc(O)c1)N1CCN(c2c(Cl)cncc2Cl)CC1 (stereo not shown) [Compound 16, 3-((1-(tert-butyl)-1H-tetrazol-5-yl)(4-(3,5-dichloropyridin-4-yl)piperazin-1-yl)methyl)phenol]",102%
15,"Oc1cccc(C(c2nnnn2C2CCCC2)N2CCN(c3c(Cl)cncc3Cl)CC2)c1 (stereo not shown) [Compound 17, 3-((1-cyclopentyl-1H-tetrazol-5-yl)(4-(3,5-dichloropyridin-4-yl)piperazin-1-yl)methyl)phenol]",108%
16,"Oc1cccc(C(c2nnnn2C2CCCCC2)N2CCN(c3c(Cl)cncc3Cl)CC2)c1 (stereo not shown) [Compound 18, 3-((1-cyclohexyl-1H-tetrazol-5-yl)(4-(3,5-dichloropyridin-4-yl)piperazin-1-yl)methyl)phenol]",110%
17,"Oc1cccc(C(c2nnnn2Cc2ccccc2)N2CCN(c3c(Cl)cncc3Cl)CC2)c1 (stereo not shown) [Compound 19, 3-((1-benzyl-1H-tetrazol-5-yl)(4-(3,5-dichloropyridin-4-yl)piperazin-1-yl)methyl)phenol]",120%
18,"Cc1cccc(C)c1-n1nnnc1C(c1cccc(O)c1)N1CCN(c2c(Cl)cncc2Cl)CC1 (stereo not shown) [Compound 20, 3-((4-(3,5-dichloropyridin-4-yl)piperazin-1-yl)(1-(2,6-dimethylphenyl)-1H-tetrazol-5-yl)methyl)phenol]",111%
19,"CCCCNC(=O)C(c1cccc(O)c1)N1CCN(c2c(Cl)cncc2Cl)CC1 (stereo not shown) [Compound 21, N-butyl-2-(4-(3,5-dichloropyridin-4-yl)piperazin-1-yl)-2-(3-hydroxyphenyl)acetamide]",93%

row,Structure (SMILES),inhibition at 10 µM
1,"Oc1cccc(CN2CCN(c3c(Cl)cncc3Cl)CC2)c1 [Compound 22, 3-((4-(3,5-dichloropyridin-4-yl)piperazin-1-yl)methyl)phenol]",68.1%
2,"Clc1cncc(Cl)c1N1CCN(Cc2cc3ccccc3o2)CC1 [Compound 23, 1-(benzofuran-2-ylmethyl)-4-(3,5-dichloropyridin-4-yl)piperazine]",101%
3,"CCCCn1nnnc1C(c1cccc(O)c1)N1CCN(c2c(Cl)cccc2Cl)CC1 (stereo not shown) [Compound 25, 3-((1-butyl-1H-tetrazol-5-yl)(4-(2,6-dichlorophenyl)piperazin-1-yl)methyl)phenol]",98%
4,"CCCCn1nnnc1C(c1cccc(O)c1)N1CCN(c2ccncc2)CC1 (stereo not shown) [Compound 27, 3-((1-butyl-1H-tetrazol-5-yl)(4-(pyridin-4-yl)piperazin-1-yl)methyl)phenol]",1.04%
5,"CCCCn1nnnc1C(c1cc2ccccc2o1)N1CCN(c2c(Cl)cncc2Cl)CC1 (stereo not shown) [Compound 28, 1-(benzofuran-2-yl(1-butyl-1H-tetrazol-5-yl)methyl)-4-(3,5-dichloropyridin-4-yl)piperazine]",96.8%
6,"CC(C)(C)n1nnnc1C(c1ccnc2ccccc12)N1CCN(c2c(Cl)cncc2Cl)CC1 (stereo not shown) [Compound 29, 4-((1-(tert-butyl)-1H-tetrazol-5-yl)(4-(3,5-dichloropyridin-4-yl)piperazin-1-yl)methyl)quinoline]",108%
7,"CCCCn1nnnc1C(c1ccncc1)N1CCN(c2c(Cl)cncc2Cl)CC1 (stereo not shown) [Compound 30, 1-((1-butyl-1H-tetrazol-5-yl)(pyridin-4-yl)methyl)-4-(3,5-dichloropyridin-4-yl)piperazine]",100%
8,"CC(C)(C)n1nnnc1C(c1ccncc1)N1CCN(c2c(Cl)cncc2Cl)CC1 (stereo not shown) [Compound 31, 1-((1-(tert-butyl)-1H-tetrazol-5-yl)(pyridin-4-yl)methyl)-4-(3,5-dichloropyridin-4-yl)piperazine]",91.4%
9,"CCCCn1nnnc1C(c1ccc(OC)cc1)N1CCN(c2c(Cl)cncc2Cl)CC1 (stereo not shown) [Compound 32, 1-((1-butyl-1H-tetrazol-5-yl)(4-methoxyphenyl)methyl)-4-(3,5-dichloropyridin-4-yl)piperazine]",91.6%
10,"COc1ccc(C(c2nnnn2C(C)(C)C)N2CCN(c3c(Cl)cncc3Cl)CC2)cc1 (stereo not shown) [Compound 33, 1-((1-(tert-butyl)-1H-tetrazol-5-yl)(4-methoxyphenyl)methyl)-4-(3,5-dichloropyridin-4-yl)piperazine]",97.5%
11,"CCCCn1nnnc1C(c1ccc(C#N)cc1)N1CCN(c2c(Cl)cncc2Cl)CC1 (stereo not shown) [Compound 34, 4-((1-butyl-1H-tetrazol-5-yl)(4-(3,5-dichloropyridin-4-yl)piperazin-1-yl)methyl)benzonitrile]",99.8%
12,"CC(C)(C)n1nnnc1C(c1ccc(C#N)cc1)N1CCN(c2c(Cl)cncc2Cl)CC1 (stereo not shown) [Compound 35, 4-((1-(tert-butyl)-1H-tetrazol-5-yl)(4-(3,5-dichloropyridin-4-yl)piperazin-1-yl)methyl)benzonitrile]",106%
13,"CCCCn1nnnc1C(c1ccc(F)cc1)N1CCN(c2c(Cl)cncc2Cl)CC1 (stereo not shown) [Compound 36, 1-((1-butyl-1H-tetrazol-5-yl)(4-fluorophenyl)methyl)-4-(3,5-dichloropyridin-4-yl)piperazine]",102%
14,"CC(C)(C)n1nnnc1C(c1ccc(F)cc1)N1CCN(c2c(Cl)cncc2Cl)CC1 (stereo not shown) [Compound 37, 1-((1-(tert-butyl)-1H-tetrazol-5-yl)(4-fluorophenyl)methyl)-4-(3,5-dichloropyridin-4-yl)piperazine]",111%
15,"CCCCn1nnnc1C(c1cccc2ccccc12)N1CCN(c2c(Cl)cncc2Cl)CC1 (stereo not shown) [Compound 38, 1-((1-butyl-1H-tetrazol-5-yl)(naphthalen-1-yl)methyl)-4-(3,5-dichloropyridin-4-yl)piperazine]",97.6%
16,"CC(C)(C)n1nnnc1C(c1cccc2ccccc12)N1CCN(c2c(Cl)cncc2Cl)CC1 (stereo not shown) [Compound 39, 1-((1-(tert-butyl)-1H-tetrazol-5-yl)(naphthalen-1-yl)methyl)-4-(3,5-dichloropyridin-4-yl)piperazine]",107%
17,"CCCCn1nnnc1C(c1ccc2ccccc2c1)N1CCN(c2c(Cl)cncc2Cl)CC1 (stereo not shown) [Compound 40, 1-((1-butyl-1H-tetrazol-5-yl)(naphthalen-2-yl)methyl)-4-(3,5-dichloropyridin-4-yl)piperazine]",87.6%
18,"CC(C)(C)n1nnnc1C(c1ccc2ccccc2c1)N1CCN(c2c(Cl)cncc2Cl)CC1 (stereo not shown) [Compound 41, 1-((1-(tert-butyl)-1H-tetrazol-5-yl)(naphthalen-2-yl)methyl)-4-(3,5-dichloropyridin-4-yl)piperazine]",108%

# Same assay, conditions: Table II
row,Structure (SMILES),IC50
1,"CCCCn1nnnc1C(c1cccc(O)c1)N1CCN(c2c(Cl)cncc2Cl)CC1 (stereo not shown) [Compound 1, 3-((1-butyl-1H-tetrazol-5-yl)(4-(3,5-dichloropyridin-4-yl)piperazin-1-yl)methyl)phenol]",45.9 nM
2,"CC(C)(C)n1nnnc1C(c1cc2ccccc2o1)N1CCN(c2c(Cl)cncc2Cl)CC1 (stereo not shown) [Compound 2, 1-(benzofuran-2-yl(1-(tert-butyl)-1H-tetrazol-5-yl)methyl)-4-(3,5-dichloropyridin-4-yl)piperazine]",557 nM
3,"CCCCn1nnnc1C(c1ccnc2ccccc12)N1CCN(c2c(Cl)cncc2Cl)CC1 (stereo not shown) [Compound 3, 4-((1-butyl-1H-tetrazol-5-yl)(4-(3,5-dichloropyridin-4-yl)piperazin-1-yl)methyl)quinoline]",523 nM
4,"CCCCn1nnnc1CN1CCN(c2c(Cl)cncc2Cl)CC1 [Compound 5, 1-((1-butyl-1H-tetrazol-5-yl)methyl)-4-(3,5-dichloropyridin-4-yl)piperazine]",1710 nM
5,"Oc1cccc(C(c2nnnn2Cc2ccccc2)N2CCN(c3c(Cl)cncc3Cl)CC2)c1 (stereo not shown) [Compound 19, 3-((1-benzyl-1H-tetrazol-5-yl)(4-(3,5-dichloropyridin-4-yl)piperazin-1-yl)methyl)phenol]",134 nM
6,"CCCCn1nnnc1C(c1cccc(O)c1)N1CCN(c2c(Cl)cccc2Cl)CC1 (stereo not shown) [Compound 25, 3-((1-butyl-1H-tetrazol-5-yl)(4-(2,6-dichlorophenyl)piperazin-1-yl)methyl)phenol]",1600 nM
